Measured values published in patent US20260344661A1, “USE OF AN ALKYLETHER SULFATE FOR IMPROVING THE EFFICACY OF HERBICIDES” (BASF SE, priority 2022, published 2026).

How the values were obtained:
HORVW (winter barley) = assay: Greenhouse post-emergence weed control, damage vs untreated (HORVW); type: in vivo, Hordeum vulgare; settings: 20 DAT
AVEFA (wild oat) = assay: Greenhouse post-emergence weed control, damage vs untreated (AVEFA); type: in vivo, Avena fatua
Protocol: (§1) A greenhouse study was conducted to evaluate the effect of the alkylether sulfates of formula (I) and other adjuvants on the weed control efficacy of glufosinate. Seedlings of grass plants (AVEFA, ECHCG, DIGSA and SETVI) and broadleaf weeds (KCHSC, CHEAL, AMAPA, AMATA and ABUTH) were grown to a height of 3 to 20 cm, depending on the plant habit in 10×10×10 cm pots filled with sandy planting soil (Limburgerhof soil). The weeds were treated with postemergence applications of glufosinate ammonium at the respective application rates given in the following tables, either alone or combined with various amounts of the respective adjuvants.
(§2) For this, the herbicide formulation and the respective adjuvant were introduced into tap water to obtain the spray liquor. […] The spray liquor was then applied to the plant a spray volume of 200 l/ha using a sprayer (XR Teejet 110015).
(§3) The test period extended over 21 days. During this time, the plants were tended, and their response to the treatments with active compound was evaluated.
(§4) The evaluation for the damage caused by the chemical compositions was carried out using a scale from 0 to 100%, compared to the untreated control plants. Here, 0 means no damage and 100 means complete destruction of the plants.
(§5) The plants used in the greenhouse experiments belonged to the following species:
(§6) The results are summarized in the following tables 1 to 15 that show the applied doses of the individual actives as gram of active ingredient per hectare (g ai/ha), the herbicidal activity of the individual […]

ECHCG (barnyardgrass) = assay: Greenhouse post-emergence weed control, damage vs untreated (ECHCG); type: in vivo, Echinochloa crus-galli
Protocol: as §1, §2, §3, §4, §5, §6

DIGSA (large crabgrass) = assay: Greenhouse post-emergence weed control, damage vs untreated (DIGSA); type: in vivo, Digitaria sanguinalis; settings: 20 DAT
Protocol: as §1, §2, §3, §4
(§7) The plants used in the greenhouse experiments belonged to the following species: […]

SETVI (green foxtail) = assay: Greenhouse post-emergence weed control, damage vs untreated (SETVI); type: in vivo, Setaria viridis
Protocol: as §1, §2, §3, §4, §5, §6

[1] = test system: Øgras (average value of AVEFA, ECHCG, DIGSA and SETVI); assay: Greenhouse post-emergence weed control, average over grasses (Øgras); type: in vivo
Protocol: as §1, §2, §3, §4, §5, §6

KCHSC (kochia) = assay: Greenhouse post-emergence weed control, damage vs untreated (KCHSC); type: in vivo, Kochia scoparia; settings: 20 DAT
Protocol: as §1, §2, §3, §4, §7

AMAPA (palmer amaranth) = assay: Greenhouse post-emergence weed control, damage vs untreated (AMAPA); type: in vivo, Amaranthus palmeri; settings: 20 DAT
Protocol: as §1, §2, §3, §4, §5
(§8) The results are summarized in the following tables 1 to 15 that show the applied doses of the individual actives as gram of active ingredient per hectare (g ai/ha), the herbicidal activity of the individual actives and of their combinations in post-emergence application assessed 14 and 28 day after treatment (DAT), respectively.

[2] = test system: AMATA (common water hemp); assay: Greenhouse post-emergence weed control, damage vs untreated (AMATA); type: in vivo, Amaranthus tuberculatus; settings: 20 DAT
Protocol: as §1, §2, §3, §4, §5, §8

ABUTH (velvetleaf) = assay: Greenhouse post-emergence weed control, damage vs untreated (ABUTH); type: in vivo, Abutilon theophrasti; settings: 20 DAT
Protocol: as §1, §2
[…] During this time, the plants were tended, and their response to the treatments with active compound was evaluated.
as §4, §7

[3] = test system: ØBLV (average value of KCHSC, CHEAL, AMAPA, AMATA and ABUTH); assay: Greenhouse post-emergence weed control, average over broadleaf weeds (ØBLV); type: in vivo; settings: 20 DAT
Protocol: as §1, §2, §3, §4, §5, §8

HORVS (spring barley) = assay: Greenhouse post-emergence weed control, damage vs untreated (HORVS); type: in vivo; settings: 20 DAT
TRZAS (spring wheat) = assay: Greenhouse post-emergence weed control, damage vs untreated (TRZAS); type: in vivo, Soft wheat (spring)
AMATU (tall waterhemp) = assay: Greenhouse post-emergence weed control, damage vs untreated (AMATU); type: in vivo, Amaranthus tuberculatus; settings: 20 DAT
Protocol: as §1, §2, §3, §4, §5, §8

[4] = 5 g ai/ha L-glufosinate (so in the source), no adjuvant
[5] = 37.5 g ai/ha L-glufosinate, adjuvant g ai/ha: none (CE1-B), 56 (IE2-A), 62.125 (IE2-B), 51.625 (CE2-F)
[6] = 150 g ai/ha L-glufosinate, adjuvant g ai/ha: none (CE1-B), 223 (IE2-A), 248.5 (IE2-B), 206.5 (CE2-F)
[7] = 300 g ai/ha L-glufosinate, adjuvant g ai/ha: none (CE1-B), 446 (IE2-A), 497 (IE2-B), 413 (CE2-F)
[8] = g ai/ha: 42.375 solo (CE1-C), 42.375 + 66.97 combined (IE3-A/B/C, CE2-J)
[9] = g ai/ha: 84.75 solo (CE1-C), 84.75 + 133.94 combined (IE3-A/B/C, CE2-J)
[10] = g ai/ha: 169.5 solo (CE1-C), 169.5 + 267.89 combined (IE3-A/B/C, CE2-J)
[11] = g ai/ha: 339 solo (CE1-C), 339 + 535.77 combined (IE3-A/B/C, CE2-J)

## CP(=O)(O)CC[C@H](N)C(=O)O.N [CE1-B, ammonium (2S)-2-amino-4-(methylphosphinato)butyric acid]
HORVW (winter barley); [4]
  % activity: 0%
HORVW (winter barley); [5]
  % activity: 5%
HORVW (winter barley); [6]
  % activity: 5%
HORVW (winter barley); [7]
  % activity: 15%
AVEFA (wild oat); [4]
  % activity: 5%
AVEFA (wild oat); [5]
  % activity: 0%
AVEFA (wild oat); [6]
  % activity: 10%
AVEFA (wild oat); [7]
  % activity: 20%
AVEFA (wild oat); [8]
  % activity AVEFA: 3%
AVEFA (wild oat); [9]
  % activity AVEFA: 3%
AVEFA (wild oat); [10]
  % activity AVEFA: 5%
AVEFA (wild oat); [11]
  % activity AVEFA: 8%
ECHCG (barnyardgrass); [4]
  % activity: 0%
ECHCG (barnyardgrass); [5]
  % activity: 0%
ECHCG (barnyardgrass); [6]
  % activity: 20%
ECHCG (barnyardgrass); [7]
  % activity: 60%
ECHCG (barnyardgrass); [8]
  % activity ECHCG: 0%
ECHCG (barnyardgrass); [9]
  % activity ECHCG: 3%
ECHCG (barnyardgrass); [10]
  % activity ECHCG: 3%
ECHCG (barnyardgrass); [11]
  % activity ECHCG: 20%
DIGSA (large crabgrass); [4]
  % activity: 0%
DIGSA (large crabgrass); [8]
  % activity DIGSA: 5%
DIGSA (large crabgrass); [9]
  % activity DIGSA: 15%
DIGSA (large crabgrass); [10]
  % activity DIGSA: 55%
DIGSA (large crabgrass); [11]
  % activity DIGSA: 70%
DIGSA (large crabgrass); [5]
  % activity: 0%
DIGSA (large crabgrass); [6]
  % activity: 30%
DIGSA (large crabgrass); [7]
  % activity: 40%
SETVI (green foxtail); [4]
  % activity: 98%
SETVI (green foxtail); [5]
  % activity: 85%
SETVI (green foxtail); [6]
  % activity: 98%
SETVI (green foxtail); [7]
  % activity: 95%
[1]; [4]
  % activity (Øgras): 26%
[1]; [5]
  % activity (Øgras): 21%
[1]; [6]
  % activity (Øgras): 40%
[1]; [7]
  % activity (Øgras): 54%
KCHSC (kochia); [4]
  % activity: 5%
KCHSC (kochia); [8]
  % activity KCHSC: 3%
KCHSC (kochia); [9]
  % activity KCHSC: 3%
KCHSC (kochia); [10]
  % activity KCHSC: 28%
KCHSC (kochia); [11]
  % activity KCHSC: 35%
KCHSC (kochia); [5]
  % activity: 0%
KCHSC (kochia); [6]
  % activity: 5%
KCHSC (kochia); [7]
  % activity: 10%
AMAPA (palmer amaranth); [4]
  % activity: 60%
AMAPA (palmer amaranth); [5]
  % activity: 98%
AMAPA (palmer amaranth); [6]
  % activity: 98%
AMAPA (palmer amaranth); [7]
  % activity: 98%
[2]; [4]
  % activity: 95%
[2]; [5]
  % activity: 20%
[2]; [6]
  % activity: 98%
[2]; [7]
  % activity: 98%
ABUTH (velvetleaf); [4]
  % activity: 10%
ABUTH (velvetleaf); [8]
  % activity ABUTH: 5%
ABUTH (velvetleaf); [10]
  % activity ABUTH: 30%
ABUTH (velvetleaf); [11]
  % activity ABUTH: 68%
ABUTH (velvetleaf); [5]
  % activity: 10%
ABUTH (velvetleaf); [6]
  % activity: 30%
ABUTH (velvetleaf); [7]
  % activity: 60%
[3]; [4]
  % activity (ØBLV): 34%
[3]; [5]
  % activity (ØBLV): 26%
[3]; [6]
  % activity (ØBLV): 46%
[3]; [7]
  % activity (ØBLV): 56%
HORVS (spring barley); [8]
  % activity HORVS: 0%
HORVS (spring barley); [9]
  % activity HORVS: 0%
HORVS (spring barley); [10]
  % activity HORVS: 0%
HORVS (spring barley); [11]
  % activity HORVS: 10%
TRZAS (spring wheat); [8]
  % activity TRZAS: 0%
TRZAS (spring wheat); [9]
  % activity TRZAS: 0%
TRZAS (spring wheat); [10]
  % activity TRZAS: 5%
TRZAS (spring wheat); [11]
  % activity TRZAS: 5%
AMATU (tall waterhemp); [8]
  % activity AMATU: 23%
AMATU (tall waterhemp); [9]
  % activity AMATU: 75%
AMATU (tall waterhemp); [10]
  % activity AMATU: 45%
AMATU (tall waterhemp); [11]
  % activity AMATU: 97%
